# Data published in publication PMC11123773, “Identification of New Substrates and Inhibitors of Human CYP2A7” (Molecules, 2024).
# Numbering of substitutions follows the chain as printed.
# What was measured:
# Test in all cases: Diclofenac biotransformation with enzyme bags, LC-MS analysis of hydroxydiclofenac
# Assay type in all cases: biochemical
# [1] = target: T1, CYP2A7*1 (Homo sapiens, UniProt P20853); parameters: expressed in transfected cells; host or cells: Schizosaccharomyces pombe strain RAJ127 (pREP1-CYP2A7*1 in CAD62), permeabilized cells (enzyme bags); conditions: by CYP2A7*1; diclofenac 100 µM
# T1 sequence (P20853 1-494): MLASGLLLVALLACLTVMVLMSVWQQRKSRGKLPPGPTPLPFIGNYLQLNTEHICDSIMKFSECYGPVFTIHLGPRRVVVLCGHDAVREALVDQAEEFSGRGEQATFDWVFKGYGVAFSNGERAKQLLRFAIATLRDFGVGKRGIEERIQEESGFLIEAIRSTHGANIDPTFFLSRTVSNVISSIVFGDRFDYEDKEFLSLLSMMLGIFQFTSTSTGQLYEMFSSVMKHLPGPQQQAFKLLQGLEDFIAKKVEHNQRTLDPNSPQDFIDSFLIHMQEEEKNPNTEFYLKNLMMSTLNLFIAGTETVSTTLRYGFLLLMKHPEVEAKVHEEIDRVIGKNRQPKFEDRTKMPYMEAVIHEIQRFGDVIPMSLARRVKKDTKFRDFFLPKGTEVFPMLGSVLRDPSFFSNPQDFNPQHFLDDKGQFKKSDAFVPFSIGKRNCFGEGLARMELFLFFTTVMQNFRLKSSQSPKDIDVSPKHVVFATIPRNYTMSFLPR
# Procedure: (§1) This was performed as described previously with slight modifications. Briefly, fission yeast cells were cultured on EMM plates with 5 µM thiamine for 3 days at 30 °C. A single yeast colony was then transferred to a 10 mL liquid culture of EMM without thiamine and cultured at 30 °C and 230 rpm for 36 h. As the recombinant expression of the human enzymes is controlled by the strong endogenous nmt1 promoter, all subsequent cultures were cultured in the absence of thiamine to keep the promoter in an active state. For each activity assay, 5 × 10^7 cells (stationary growth phase) were transferred to 1.5 mL Eppendorf tubes (Axygen; Silicon Valley, USA), pelleted, and incubated in 1 mL of 0.3% Triton-X100 in Tris-KCl buffer (200 mM KCl, 100 mM Tris-HCl pH 7.8) at room temperature for 60 min at 150 rpm for permeabilization. After three washes with 1 mL NH4HCO3 buffer (50 mM, pH 7.8), cells were resuspended in phosphate buffer (pH 7.4) and then the substrate and the NADPH regeneration system were added to a total volume of 50 µL. The samples were incubated at 37 °C and 1000 rpm for 3 h. For LC-MS analysis, the reaction mixture was extracted with an equal amount of ethyl acetate by centrifugation, and the supernatants were stored at −20 °C until use.
# (§2) Analytical procedures were performed on an Agilent HPLC/microTOF-Q II instrument equipped with a Kromasil 100-5-C18 (dimensions 4.6 × 250 mm). […]
# [2] = target: T2, CYP2A7-WT (Homo sapiens, UniProt P20853, D169E/H274R/R311C/V479G); parameters: expressed in transfected cells; host or cells: Schizosaccharomyces pombe strain AA01 (pREP1-CYP2A7-WT in CAD62), permeabilized cells (enzyme bags); conditions: by CYP2A7-WT; diclofenac 100 µM
# T2 sequence (P20853 1-494 D169E/H274R/R311C/V479G): T1 sequence (P20853 1-494) with D169E, H274R, R311C, V479G
# Procedure: as §1, §2
# [3] = target: T3, CYP2A6*1 (Homo sapiens, UniProt P11509); parameters: expressed in transfected cells; host or cells: Schizosaccharomyces pombe strain RAJ122 (pREP1-CYP2A6*1 in CAD62), permeabilized cells (enzyme bags); conditions: by CYP2A6*1; diclofenac 100 µM
# T3 sequence (P11509 1-494): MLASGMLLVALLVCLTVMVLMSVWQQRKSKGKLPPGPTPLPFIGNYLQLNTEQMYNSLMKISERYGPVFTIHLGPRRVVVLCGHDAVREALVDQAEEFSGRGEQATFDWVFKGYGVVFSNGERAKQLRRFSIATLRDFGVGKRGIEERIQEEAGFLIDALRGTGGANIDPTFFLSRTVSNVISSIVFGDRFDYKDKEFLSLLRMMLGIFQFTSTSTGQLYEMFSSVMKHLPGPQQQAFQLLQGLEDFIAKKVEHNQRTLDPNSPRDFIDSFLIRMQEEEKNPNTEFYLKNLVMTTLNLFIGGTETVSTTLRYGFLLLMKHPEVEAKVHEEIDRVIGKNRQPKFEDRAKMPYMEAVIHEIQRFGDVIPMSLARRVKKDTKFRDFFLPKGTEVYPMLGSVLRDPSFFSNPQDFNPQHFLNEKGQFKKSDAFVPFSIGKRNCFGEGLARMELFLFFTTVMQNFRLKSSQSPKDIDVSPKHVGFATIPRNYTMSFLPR
# Procedure: as §1, §2
compound,measurement,setting,value
O=C(O)Cc1ccccc1Nc1c(Cl)cccc1Cl [diclofenac],Metabolization of diclofenac (hydroxydiclofenac formation),[1],produced a diclofenac metabolite that had the mass of hydroxydiclofenac
same,Metabolization of diclofenac (hydroxydiclofenac formation),[2],produced a diclofenac metabolite that had the mass of hydroxydiclofenac
same,Metabolization of diclofenac (hydroxydiclofenac formation),[3],produced a diclofenac metabolite that had the mass of hydroxydiclofenac
